Here are results for 18 molecules from US11236078B2, “Heterocyclic inhibitors of the sodium channel” (priority 2014, dated 2022).

Type in all cases: cell-based
Assay [1] concerns the target T1, human Nav1.7 (hNav1.7) (Homo sapiens, UniProt Q15858).
T1 construct: expressed in transfected cells
Nature of the assay: hNav1.7 slow inactivation block, manual patchclamp. The note with it: HEK 293F cells stably expressing hNav1.7, slow inactivation induced in approximately 50% of channels. The source says:
(§1) The generation of HEK 293F cell lines stably expressing human Nav1.7 (h Nav1.7), human Nav1.5 (hNav1.5) and rat Nav1.2 (r Nav1.2) was achieved by subcloning SCN9A, SCN5A, and SCN2A genes into inducible expression vectors followed by transfection into target cells using standard techniques. In the case of h Nav1.7, an expression vector encoding the human Navβ1 auxiliary subunit gene, SCN1B, was co-transfected with the expression vector bearing the SCN9A gene. Clones were selected using appropriate selection agents (0.3 mg/mL Zeocin and 0.8 mg/mL Geneticin) and maintained in Dulbecco's Modified Eagle medium, 10% fetal bovine serum, 1% non-essential amino acids to ˜80% confluence at 37° C. in a humidified incubator with 95% atmosphere and 5% CO2.
(§2) On the day of each experiment, cells that were grown to 80% confluence in a T75 flask were harvested for use on PatchXpress (Molecular Devices, CA, USA). Following a recovery period at 37° C. in a humidified incubator with 95% atmosphere and 5% CO2 in Dulbecco's Modified Eagle Medium, the media was replaced with an external recording solution containing (in mM): 90 TEACl, 50 NaCl, 1.8 CaCl2, 1 MgCl2, 10 HEPES, 10 glucose, adjusted to pH 7.4 with TEAOH and 300 mOsm with sucrose. The internal recording solution contained (in mM): 129 CsF, 2 MgCl2, 11 EGTA, 10 HEPES, 6 NaCl, 3 Na2ATP adjusted to pH 7.2 with CsOH and 280 mOsm with sucrose. The automated liquid handling facility of PatchXpress dispensed cells and added compound. Modulation of Nav1.7 channels by compounds was assessed by promoting the channels into the inactivated state using a conditioning voltage pulse of variable amplitude, followed by a brief hyperpolarizing pulse with a subsequent depolarized voltage step to measure the current amplitude in the presence and absence of compound.
(§3) In some cases, the potency of compounds was measured using either the Patchliner automated patch clamp platform (Nanion) or manual patch clamp techniques. Both approaches allowed the compounds to be characterized based upon the ability of a compound to modulate use- and/or state-dependence across human Nav1.7 (hNav1.7), human Nav1.5 (hNav1.5) and rat Nav1.2 (rNav1.2). The potency data is tabulated in Table 2 and is represented by six data fields. Three of the six fields represent potency data measured with the Patchliner automated platform under varying use- and state-dependent electrophysiology protocols similar to the PatchXpress protocols detailed above. For example, the second data column describes the potency of compounds in their ability to block 50% of Nav1.7 channels when the channel is repetitively activated by depolarizing voltage potentials to induce slow inactivation in approximately 50% of channels (Table 2: h Nav1.7: IC50 Slow Inactivation Block, Automated Patchclamp). The next three data fields describe the data generated from manual patchclamp electrophysiology measurements using similar methods to those employed for automated patchclamp studies.
For orientation: The patch-clamp technique gives a direct electrical read-out from membranes.

The target of another assay is T2, human Nav1.5 (hNav1.5) (Homo sapiens, UniProt Q14524).
T2 construct: expressed in transfected cells
T2 sequence (Q14524 whole entry): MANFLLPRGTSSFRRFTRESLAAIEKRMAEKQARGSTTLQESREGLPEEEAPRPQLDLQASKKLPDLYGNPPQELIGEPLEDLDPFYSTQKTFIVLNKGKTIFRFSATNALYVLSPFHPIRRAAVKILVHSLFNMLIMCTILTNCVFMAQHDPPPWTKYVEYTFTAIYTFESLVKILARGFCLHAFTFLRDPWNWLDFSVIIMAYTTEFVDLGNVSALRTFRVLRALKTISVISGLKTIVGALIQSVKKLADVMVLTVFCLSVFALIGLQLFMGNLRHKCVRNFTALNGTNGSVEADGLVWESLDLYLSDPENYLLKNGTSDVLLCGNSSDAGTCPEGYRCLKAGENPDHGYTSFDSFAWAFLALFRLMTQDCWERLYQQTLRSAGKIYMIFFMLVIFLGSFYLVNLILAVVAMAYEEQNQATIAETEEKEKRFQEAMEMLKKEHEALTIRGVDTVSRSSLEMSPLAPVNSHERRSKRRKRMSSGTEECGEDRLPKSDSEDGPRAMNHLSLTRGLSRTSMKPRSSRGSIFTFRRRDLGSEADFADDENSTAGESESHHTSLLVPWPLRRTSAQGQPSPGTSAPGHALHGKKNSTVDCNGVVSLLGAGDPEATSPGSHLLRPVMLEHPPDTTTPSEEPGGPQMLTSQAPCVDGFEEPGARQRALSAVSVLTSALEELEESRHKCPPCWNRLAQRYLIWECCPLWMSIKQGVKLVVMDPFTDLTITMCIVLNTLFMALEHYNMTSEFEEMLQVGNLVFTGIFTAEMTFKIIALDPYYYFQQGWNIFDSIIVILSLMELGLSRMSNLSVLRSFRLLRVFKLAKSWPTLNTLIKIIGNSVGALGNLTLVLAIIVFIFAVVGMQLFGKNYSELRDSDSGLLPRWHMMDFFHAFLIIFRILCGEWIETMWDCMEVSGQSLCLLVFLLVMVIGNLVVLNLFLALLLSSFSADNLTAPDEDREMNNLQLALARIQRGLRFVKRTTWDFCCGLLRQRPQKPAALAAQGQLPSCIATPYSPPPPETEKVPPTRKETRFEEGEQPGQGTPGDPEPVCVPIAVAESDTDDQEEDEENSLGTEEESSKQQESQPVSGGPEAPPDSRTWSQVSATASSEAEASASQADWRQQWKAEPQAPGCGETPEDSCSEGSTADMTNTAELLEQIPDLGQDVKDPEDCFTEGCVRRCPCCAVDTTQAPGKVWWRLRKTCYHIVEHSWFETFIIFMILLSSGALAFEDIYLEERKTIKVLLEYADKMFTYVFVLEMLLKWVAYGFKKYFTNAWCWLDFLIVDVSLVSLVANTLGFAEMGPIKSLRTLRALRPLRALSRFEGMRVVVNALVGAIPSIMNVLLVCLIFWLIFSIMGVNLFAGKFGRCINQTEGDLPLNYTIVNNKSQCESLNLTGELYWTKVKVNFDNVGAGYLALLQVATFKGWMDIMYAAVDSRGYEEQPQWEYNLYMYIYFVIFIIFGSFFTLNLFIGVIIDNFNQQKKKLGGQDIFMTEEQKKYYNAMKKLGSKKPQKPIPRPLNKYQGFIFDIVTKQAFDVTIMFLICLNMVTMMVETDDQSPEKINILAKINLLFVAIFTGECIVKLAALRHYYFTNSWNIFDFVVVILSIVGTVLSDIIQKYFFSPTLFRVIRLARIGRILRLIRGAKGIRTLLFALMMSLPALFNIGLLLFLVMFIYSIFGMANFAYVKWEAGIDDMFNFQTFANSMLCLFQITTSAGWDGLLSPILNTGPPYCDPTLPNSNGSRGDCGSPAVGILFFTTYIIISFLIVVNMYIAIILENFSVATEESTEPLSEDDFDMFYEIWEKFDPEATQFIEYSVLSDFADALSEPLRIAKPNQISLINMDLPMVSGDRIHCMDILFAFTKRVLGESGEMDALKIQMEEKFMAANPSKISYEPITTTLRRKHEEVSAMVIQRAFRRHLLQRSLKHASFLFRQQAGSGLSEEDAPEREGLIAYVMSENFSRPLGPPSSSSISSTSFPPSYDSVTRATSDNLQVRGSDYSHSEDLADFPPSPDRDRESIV
Nature of the assay: hNav1.5 slow inactivation block, manual patchclamp. The note with it: HEK 293F cells stably expressing hNav1.5.
Description: as §1, with “CO2. […]” for “CO2.”
as §2, §3

The target in assay [2] is T3, rat Nav1.2 (rNav1.2) (Rattus norvegicus, UniProt P04775).
T3 construct: expressed in transfected cells
T3 sequence (P04775 whole entry): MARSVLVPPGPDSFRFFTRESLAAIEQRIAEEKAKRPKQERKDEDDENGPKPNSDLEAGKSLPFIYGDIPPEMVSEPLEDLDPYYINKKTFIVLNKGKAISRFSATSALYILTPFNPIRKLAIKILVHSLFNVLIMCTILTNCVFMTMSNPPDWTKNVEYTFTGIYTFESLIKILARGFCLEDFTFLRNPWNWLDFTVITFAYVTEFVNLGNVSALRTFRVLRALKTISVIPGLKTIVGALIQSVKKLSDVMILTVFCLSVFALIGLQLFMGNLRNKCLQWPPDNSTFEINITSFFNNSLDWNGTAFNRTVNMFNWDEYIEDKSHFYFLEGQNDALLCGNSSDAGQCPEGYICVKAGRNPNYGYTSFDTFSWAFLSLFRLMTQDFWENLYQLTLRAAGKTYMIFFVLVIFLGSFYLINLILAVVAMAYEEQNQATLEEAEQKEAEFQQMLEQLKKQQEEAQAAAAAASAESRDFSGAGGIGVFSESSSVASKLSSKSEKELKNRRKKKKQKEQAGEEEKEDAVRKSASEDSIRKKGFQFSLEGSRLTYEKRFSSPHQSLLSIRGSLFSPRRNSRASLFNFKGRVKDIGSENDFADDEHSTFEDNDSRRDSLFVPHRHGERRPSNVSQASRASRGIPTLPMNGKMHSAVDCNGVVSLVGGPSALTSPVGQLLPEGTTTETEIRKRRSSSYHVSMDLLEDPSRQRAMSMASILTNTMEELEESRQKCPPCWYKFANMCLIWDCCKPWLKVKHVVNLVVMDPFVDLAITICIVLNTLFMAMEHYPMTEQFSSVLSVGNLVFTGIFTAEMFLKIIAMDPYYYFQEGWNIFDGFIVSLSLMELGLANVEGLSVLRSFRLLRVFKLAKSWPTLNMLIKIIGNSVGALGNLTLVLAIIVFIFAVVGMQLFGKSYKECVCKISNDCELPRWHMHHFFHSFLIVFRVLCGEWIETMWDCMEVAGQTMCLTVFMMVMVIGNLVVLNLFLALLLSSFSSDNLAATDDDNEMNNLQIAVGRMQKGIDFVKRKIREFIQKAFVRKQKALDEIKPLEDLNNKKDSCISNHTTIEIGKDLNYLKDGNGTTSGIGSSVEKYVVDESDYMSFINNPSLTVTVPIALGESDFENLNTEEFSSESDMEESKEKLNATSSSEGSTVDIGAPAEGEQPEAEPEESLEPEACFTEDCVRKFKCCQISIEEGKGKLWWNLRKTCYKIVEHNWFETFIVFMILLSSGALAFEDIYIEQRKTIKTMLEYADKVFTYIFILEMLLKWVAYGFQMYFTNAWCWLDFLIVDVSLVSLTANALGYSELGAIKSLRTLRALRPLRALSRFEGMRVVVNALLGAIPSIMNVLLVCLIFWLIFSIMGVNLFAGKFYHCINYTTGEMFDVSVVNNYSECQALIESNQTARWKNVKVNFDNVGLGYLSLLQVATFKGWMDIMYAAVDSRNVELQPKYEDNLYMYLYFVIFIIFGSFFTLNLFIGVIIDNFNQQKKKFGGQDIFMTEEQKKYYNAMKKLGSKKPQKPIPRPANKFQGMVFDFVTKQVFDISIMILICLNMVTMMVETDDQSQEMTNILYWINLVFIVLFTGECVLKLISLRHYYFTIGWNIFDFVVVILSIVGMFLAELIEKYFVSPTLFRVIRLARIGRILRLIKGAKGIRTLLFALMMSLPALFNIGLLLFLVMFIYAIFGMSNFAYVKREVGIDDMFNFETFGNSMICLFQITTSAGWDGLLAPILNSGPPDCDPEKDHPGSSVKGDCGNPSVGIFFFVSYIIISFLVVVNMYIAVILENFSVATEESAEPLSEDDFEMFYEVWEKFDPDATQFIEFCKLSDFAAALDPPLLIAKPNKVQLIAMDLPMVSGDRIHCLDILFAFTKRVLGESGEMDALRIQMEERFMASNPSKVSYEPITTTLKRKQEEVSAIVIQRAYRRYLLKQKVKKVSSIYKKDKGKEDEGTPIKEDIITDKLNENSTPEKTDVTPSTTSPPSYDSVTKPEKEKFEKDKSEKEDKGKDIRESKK
Nature of the assay: rNav1.2 slow inactivation block, automated patchclamp. The note with it: HEK 293F cells stably expressing rNav1.2.
Description: as §1, §2, §3

The target of assay [3] is T1, human Nav1.7 (hNav1.7). The assay is described as follows: hNav1.7 slow inactivation block, automated patchclamp. The note with it: HEK 293F cells stably expressing hNav1.7, slow inactivation induced in approximately 50% of channels.
Description: as §1, §2, §3

The target in assay [4] is T3, rat Nav1.2 (rNav1.2). The assay is described as follows: rNav1.2 slow inactivation block, manual patchclamp. The note with it: HEK 293F cells stably expressing rNav1.2.
Description: as §1, §2, §3

For `O=C(NCc1cc(F)c(Oc2cc(Br)cc(C(F)(F)F)c2)cc1F)c1ncns1` [Compound 1, N-(4-(3-bromo-5-(trifluoromethyl)phenoxy)-2,5-difluorobenzyl)-1,2,4-thiadiazole-5-carboxamide], the results for the IC50 against human Nav1.7 (hNav1.7) [1] and against human Nav1.5 (hNav1.5) were 294 nM and under 1000 nM, respectively.

Take `CN(c1ncns1)S(=O)(=O)c1cc(F)c(Oc2cc(Br)cc(C(F)(F)F)c2)cc1F` [Compound 2, 4-(3-bromo-5-(trifluoromethyl)phenoxy)-2,5-difluoro-N-methyl-N-(1,2,4-thiadiazol-5-yl)benzenesulfonamide]: the figures for the IC50 on human Nav1.7 (hNav1.7) [1] and at human Nav1.5 (hNav1.5) were 484 nM and over 3200 nM, respectively.

In the case of `N#Cc1cc(S(=O)(=O)Nc2ncns2)ccc1Oc1cc(C(F)(F)F)cc(C(F)(F)F)c1` [Compound 14, 4-[3,5-bis(trifluoromethyl)phenoxy]-3-cyano-N-(1,2,4-thiadiazol-5-yl)benzene-1-sulfonamide], the IC50 is over 32000 nM on rat Nav1.2 (rNav1.2) [2], about 49000 nM at human Nav1.7 (hNav1.7) [3], over 10000 nM on rat Nav1.2 (rNav1.2) [4] and 4940 nM on human Nav1.7 (hNav1.7) [1].

For `O=C(NCc1cc(F)c(Oc2cc(C(F)(F)F)cc(C(F)(F)F)c2)cc1F)c1nncs1` [Compound 19, N-({4-[3,5-bis(trifluoromethyl)phenoxy]-2,5-difluorophenyl}methyl)-1,3,4-thiadiazole-2-carboxamide], the IC50 against rat Nav1.2 (rNav1.2) [2] was 5660 nM; at human Nav1.7 (hNav1.7) [3] it was about 10200 nM; on rat Nav1.2 (rNav1.2) [4] it was about 1250 nM; against human Nav1.7 (hNav1.7) [1], 1380 nM.

For `CS(=O)(=O)NCc1cc(F)c(Oc2cc(C(F)(F)F)cc(C(F)(F)F)c2)cc1F` [Compound 20, N-({4-[3,5-bis(trifluoromethyl)phenoxy]-2,5-difluorophenyl}methyl)methane-sulfonamide], the half-maximal inhibitory concentration (IC50) on rat Nav1.2 (rNav1.2) [2] was 4260 nM; at human Nav1.7 (hNav1.7) [3], 5780 nM; against rat Nav1.2 (rNav1.2) [4], about 1320 nM; against human Nav1.7 (hNav1.7) [1], about 1260 nM.

Take `O=C(O)c1cc(Oc2cc(F)c(S(=O)(=O)Nc3ncns3)cc2F)cc(C(F)(F)F)c1` [Compound 23, 3-{2,5-difluoro-4-[(1,2,4-thiadiazol-5-yl)sulfamoyl]phenoxy}-5-(trifluoromethyl)benzoic]: the IC50 at rat Nav1.2 (rNav1.2) [2] is over 32000 nM; on human Nav1.7 (hNav1.7) [3], over 32000 nM; on rat Nav1.2 (rNav1.2) [4], over 10000 nM; against human Nav1.7 (hNav1.7) [1], over 10000 nM.

Consider `NC(=O)c1cc(Oc2cc(F)c(S(=O)(=O)Nc3ncns3)cc2F)cc(C(F)(F)F)c1` [Compound 24, 3-{2,5-difluoro-4-[(1,2,4-thiadiazol-5-yl)sulfamoyl]phenoxy}-5-(trifluoromethyl)benzamide], for which the IC50 against rat Nav1.2 (rNav1.2) [2] is over 32000 nM; against human Nav1.7 (hNav1.7) [3], 23600 nM; at rat Nav1.2 (rNav1.2) [4], over 10000 nM; against human Nav1.7 (hNav1.7) [1], 3890 nM.

Consider `CCOC(=O)c1cc(Oc2cc(F)c(S(=O)(=O)Nc3ncns3)cc2F)cc(C(F)(F)F)c1` [Compound 26, ethyl 3-{2,5-difluoro-4-[(1,2,4-thiadiazol-5-yl)sulfamoyl]phenoxy}-5-(trifluoromethyl)benzoate], for which the IC50 against rat Nav1.2 (rNav1.2) [2] was over 32000 nM; against human Nav1.7 (hNav1.7) [3], about 37200 nM; at rat Nav1.2 (rNav1.2) [4] it was over 10000 nM; at human Nav1.7 (hNav1.7) [1] it was 2130 nM.

For the molecule `N#Cc1cc(Oc2cc(F)c(S(=O)(=O)Nc3ncns3)cc2F)cc(C(F)(F)F)c1` [Compound 27, 4-[3-cyano-5-(trifluoromethyl)phenoxy]-2,5-difluoro-N-(1,2,4-thiadiazol-5-yl)benzene-1-sulfonamide], the IC50 on rat Nav1.2 (rNav1.2) [2] is about 32000 nM; against human Nav1.7 (hNav1.7) [3], 18000 nM; at rat Nav1.2 (rNav1.2) [4] it was about 32000 nM; at human Nav1.7 (hNav1.7) [1], 2170 nM.

For the molecule `O=S(=O)(Nc1ncns1)c1cc(F)c(Oc2cc(F)cc(F)c2)cc1F` [Compound 28, 4-(3,5-difluorophenoxy)-2,5-difluoro-N-(1,2,4-thiadiazol-5-yl)benzene-1-sulfonamide], the IC50 against rat Nav1.2 (rNav1.2) [2] is over 32000 nM; against human Nav1.7 (hNav1.7) [3] it was about 37900 nM; on rat Nav1.2 (rNav1.2) [4] it was over 10000 nM; against human Nav1.7 (hNav1.7) [1], about 3960 nM.

As for `O=S(=O)(Nc1cccnn1)c1cc(F)c(Oc2cc(C(F)(F)F)cc(C(F)(F)F)c2)cc1F` [Compound 30, 4-[3,5-bis(trifluoromethyl)phenoxy]-2,5-difluoro-N-(pyridazin-3-yl)benzene-1-sulfonamide], the IC50 was about 25200 nM against rat Nav1.2 (rNav1.2) [2], about 36000 nM against human Nav1.7 (hNav1.7) [3], 11400 nM on rat Nav1.2 (rNav1.2) [4] and 4840 nM at human Nav1.7 (hNav1.7) [1].

As to `O=S(=O)(Nc1ncns1)c1cc(F)c(Oc2cc(F)cc(C(F)(F)F)c2)cc1F` [Compound 32, 2,5-difluoro-4-(3-fluoro-5-(trifluoromethyl)phenoxy)-N-(1,2,4-thiadiazol-5-yl)benzenesulfonamide], the IC50 at rat Nav1.2 (rNav1.2) [2] is over 32000 nM; against human Nav1.7 (hNav1.7) [3], about 21100 nM; against rat Nav1.2 (rNav1.2) [4], over 10000 nM; against human Nav1.7 (hNav1.7) [1], 942 nM.

As for `CN(C)C(=O)c1cc(Oc2cc(F)c(S(=O)(=O)Nc3ncns3)cc2F)cc(C(F)(F)F)c1` [Compound 38, 3-{2,5-difluoro-4-[(1,2,4-thiadiazol-5-yl)sulfamoyl]phenoxy}-N,N-dimethyl-5-(trifluoromethyl)benzamide], the IC50 against human Nav1.7 (hNav1.7) [3] is about 17100 nM; against human Nav1.7 (hNav1.7) [1], 1600 nM; against human Nav1.5 (hNav1.5) it was over 32000 nM.

`NC1(C(=O)NCc2cc(-c3cc(C(F)(F)F)cc(C(F)(F)F)c3)cc(C(F)(F)F)c2)CCCC1` [Compound 53, 1-amino-N-((3′,5,5′-tris(trifluoromethyl)-[1,1′-biphenyl]-3-yl)methyl)cyclopentane-1-carboxamide]: the IC50 at rat Nav1.2 (rNav1.2) [2] turned out to be 1090 nM; against human Nav1.7 (hNav1.7) [3], 1880 nM; on rat Nav1.2 (rNav1.2) [4], 120 nM; against human Nav1.7 (hNav1.7) [1] it was 225 nM.

For the molecule `O=C(NCc1cc(-c2cc(C(F)(F)F)cc(C(F)(F)F)c2)cc(C(F)(F)F)c1)[C@H]1CCCN1` [Compound 55, (R)-N-((3′,5,5′-tris(trifluoromethyl)-[1,1′-biphenyl]-3-yl)methyl)pyrrolidine-2-carboxamide], the IC50 at rat Nav1.2 (rNav1.2) [2] stood at 2580 nM; on human Nav1.7 (hNav1.7) [3], 3610 nM; on rat Nav1.2 (rNav1.2) [4], 156 nM; against human Nav1.7 (hNav1.7) [1], 162 nM.

As for `CN1CCC[C@H]1C(=O)NCc1cccc(-c2cc(C(F)(F)F)cc(C(F)(F)F)c2)c1` [Compound 57, (2S)-N-({3-[3,5-bis(trifluoromethyl)phenyl]phenyl}methyl)-1-methylpyrrolidine-2-carboxamide], the IC50 against rat Nav1.2 (rNav1.2) [2] turned out to be 12300 nM; on human Nav1.7 (hNav1.7) [3] it was 5620 nM; against rat Nav1.2 (rNav1.2) [4] it was 176 nM; against human Nav1.7 (hNav1.7) [1] it was 160 nM.

With `CN(Cc1cccc(-c2cc(C(F)(F)F)cc(C(F)(F)F)c2)c1)C(=O)[C@@H]1CCCN1` [Compound 58, (2S)-N-({3-[3,5-bis(trifluoromethyl)phenyl]phenyl}methyl)-N-methylpyrrolidine-2-carboxamide], the IC50 on rat Nav1.2 (rNav1.2) [2] is 2750 nM; on human Nav1.7 (hNav1.7) [3], 2470 nM; against rat Nav1.2 (rNav1.2) [4] it was 733 nM; at human Nav1.7 (hNav1.7) [1], 777 nM.

Consider `O=C(NCc1cccc(-c2cc(C(F)(F)F)cc(C(F)(F)F)c2)c1)[C@@H]1CCCN1S(=O)(=O)Nc1ccccc1` [Compound 59, (2S)-N-({3-[3,5-bis(trifluoromethyl)phenyl]phenyl}methyl)-1-(phenylsulfamoyl)pyrrolidine-2-carboxamide], for which the IC50 was 8730 nM on rat Nav1.2 (rNav1.2) [2], 8690 nM on human Nav1.7 (hNav1.7) [3], 166 nM against rat Nav1.2 (rNav1.2) [4] and 153 nM against human Nav1.7 (hNav1.7) [1].

By IC50 is commonly meant the concentration at which inhibition is half-maximal. High values mean lower potency, low ones higher potency.
